Laboratory results published in publication PMC6325233, “A Novel Actin Binding Drug with In Vivo Efficacy” (Antimicrobial Agents and Chemotherapy, 2018).

How the values were obtained:
[1] = tested on: Candida parapsilosis 2006; assay: MIC susceptibility testing (caspofungin-resistant strain); format: cell-based; design: key to MIC, 50% inhibition: -: indicates absence of isolates with 50% inhibition endpoint; details: CLSI M27-A3
Protocol: (§1) Occidiofungin was purified from a liquid culture of Burkholderia contaminans MS14 as previously described ([21]). MIC susceptibility testing was performed according to the CLSI M27-A3 and M38-A2 standards for the susceptibility testing of yeasts and filamentous fungi, respectively. S. cerevisiae deletion mutants were obtained from the commercially available BY4741 deletion library (Thermo Scientific).

[2] = tested on: Cryptococcus neoformans 19526; assay: as above; format: cell-based; design: key to MIC, 50% inhibition: -: indicates absence of isolates with 50% inhibition endpoint; details: CLSI M27-A3; 72 hours
Protocol: as §1

Candida krusei 28415 = assay: MIC susceptibility testing (fluconazole-resistant strain); format: cell-based; details: CLSI M27-A3
Protocol: as §1

[3] = tested on: Candida albicans strain ATCC 66027; assay: Hyphal induction (morphology switching) assay; format: cell-based; details: for % hyphae / % yeast: 1 µg/ml
Protocol: The hyphal induction assay was performed as previously reported with minor modifications ([58]). Candida albicans strain ATCC 66027 was grown in yeast extract-peptone-dextrose (YPD) medium at 30°C for 48 h to reach saturation with an OD600 of 17 to 19. Cells were diluted into fresh Spider medium (1% nutrient broth, 1% mannitol, 0.2% K2HPO4) to obtain an OD600 of 0.05 (∼0.5 × 10^6 to 1 × 10^6 cells/ml) and incubated at 37°C with shaking to induce hyphal formation. Immediately prior to the 37°C incubation, occidiofungin (1 µg/ml; 0.5× MIC) or an equal volume of DMSO was added to the cultures. Aliquots were removed at 0-, 1-, 2-, 4-, and 6-h time points and fixed in 3.7% formaldehyde for later analysis of cell morphology by light microscopy. More than 200 cells were examined for each time point, and cells were scored as having either a yeast or filamentous form, with cells showing any outgrowth considered filamentous. DNA segregation assays were performed using a mid-log culture of S. cerevisiae (BY4743, diploid) and C. albicans (ATCC 66027). The cultures were diluted in fresh YPD medium to obtain OD600s of 0.095 (∼1 × 10^6 to 1.5 × 10^6 cells/ml) and 0.05 (0.5 × 10^6 to 0.8 × 10^6 cells/ml), respectively. A blank vehicle control (DMSO) or occidiofungin (1 µg/ml; 0.5× MIC) was added, and the cultures were placed at 30°C with shaking. Samples were removed at 0.5, 1, and 2 h, and the cells fixed by adding formaldehyde (3.7%). The cells were washed in phosphate-buffered saline (PBS) and permeabilized by adding an equivalent volume of PBS containing 0.2% Triton X-100 for 30 min at room temperature. The cells were washed thrice in PBS, added to concanavalin A-treated glass slides, and overlaid with Vectashield plus DAPI (4′,6-diamidino-2-phenylindole). Images were viewed using a Nikon 50i fluorescence microscope with a 100× oil immersion objective and DAPI filter. Cells were scored on the basis of bud morphology and DNA location. One-way analyses of variance (ANOVAs) with post hoc Tukey’s honestly significant difference (HSD) testing were used to determine statistically significant differences in the distributions between treated and untreated cells. In addition, FM-464 uptake assays were used to observe endocytosis. Three 1-ml aliquots of S. pombe (OD600 of 0.6 to 0.8) were treated with 1 μl DMSO, 0.5 μg/ml (0.5× MIC), or 1 μg/ml (1× MIC) of native occidiofungin for 30 min at 30°C. The cells were washed thrice with PBS and resuspended in YPD medium containing […] FM-464 (Thermo Fisher Scientific). The cells were incubated for 60 min at 30°C, followed by two washes in PBS before visualizing on an Olympus FV1000 confocal microscope with a 40×/0.9 dry objective. Lastly, actin polymerization and depolymerization assays were performed using the Actin polymerization biochem kit (catalog number BK003; Cytoskeleton, Inc.) according to the manufacturer’s instructions.

[4] = cited from earlier work
Protocol: Occidiofungin is a nonribosomally synthesized glycolipopeptide produced by the soil bacterium Burkholderia contaminans MS14 ([21]). It is a cyclic peptide with a base mass of 1,200 Da (Fig. 1) ([21]). Occidiofungin has a wide spectrum of activities against filamentous and nonfilamentous fungi and minimal toxicity in an animal system ([21], [22]). […] Occidiofungin, on the other hand, is well tolerated at 5 mg/kg or 20 mg/kg when administered intravenously or subcutaneously, respectively ([22], [25]). This dose is much higher than the MIC of occidiofungin against several fungal pathogens. ...

[5] = T=1hr, replicate 1, untreated 51.7/48.3
[6] = T=1hr, replicate 2, untreated 72.7/27.3
[7] = T=1hr, replicate 3, untreated 43.6/56.4
[8] = T=2hr, replicate 1, untreated 23.4/76.6
[9] = T=2hr, replicate 2, untreated 15.6/84.4
[10] = T=2hr, replicate 3, untreated 14.2/85.8
[11] = T=4hr, replicate 1, untreated 7.1/92.9
[12] = T=4hr, replicate 2, untreated 17.4/82.6
[13] = T=4hr, replicate 3, untreated 13.2/86.8
[14] = T=6hr, replicate 2, untreated 52.2/47.8
[15] = T=6hr, replicate 3, untreated 21.1/78.9

Substance: occidiofungin
- MIC, 50% inhibition ([1]; 24 hours): 2 µg/mL
- MIC, 100% inhibition ([1]; 24 hours): 4 µg/mL
- MIC, 50% inhibition ([1]; 48 hours): -
- MIC, 100% inhibition ([1]; 48 hours): 4 µg/mL
- MIC, 50% inhibition [2]: -
- MIC, 100% inhibition [2]: 2 µg/mL
- MIC, 50% inhibition (Candida krusei 28415; 24 hours): 4 µg/mL
- MIC, 100% inhibition (Candida krusei 28415; 24 hours): 8 µg/mL
- MIC, 50% inhibition (Candida krusei 28415; 48 hours): 4 µg/mL
- MIC, 100% inhibition (Candida krusei 28415; 48 hours): 8 µg/mL
- % hyphae ([3]; T=0hr, replicate 1): 0%
- % yeast ([3]; T=0hr, replicate 1): 100%
- % hyphae ([3]; T=0hr, replicate 2): 0%
- % yeast ([3]; T=0hr, replicate 2): 100%
- % hyphae ([3]; T=0hr, replicate 3): 0%
- % yeast ([3]; T=0hr, replicate 3): 100%
- % hyphae [3, 5]: 0%
- % yeast [3, 5]: 100%
- % hyphae [3, 6]: 0%
- % yeast [3, 6]: 100%
- % hyphae [3, 7]: 0%
- % yeast [3, 7]: 100%
- % hyphae [3, 8]: 0%
- % yeast [3, 8]: 100%
- % hyphae [3, 9]: 0%
- % yeast [3, 9]: 100%
- % hyphae [3, 10]: 0%
- % yeast [3, 10]: 100%
- % hyphae [3, 11]: 0.5%
- % yeast [3, 11]: 99.5%
- % hyphae [3, 12]: 0%
- % yeast [3, 12]: 100%
- % hyphae [3, 13]: 0.2%
- % yeast [3, 13]: 99.8%
- % hyphae [3, 14]: 0%
- % yeast [3, 14]: 100%
- % hyphae [3, 15]: 0%
- % yeast [3, 15]: 100%
- effect on hyphal formation ([3]; subinhibitory concentration (1 µg/ml; 0.5× MIC)): blocked hyphal formation
- blood cells and blood chemistry [4]: no serious signs of toxicity
- toxicity at 5 mg/kg intravenous ([4]; intravenous, 5 mg/kg, mice): minimal induced toxicity
- well tolerated dose, intravenous ([4]; intravenous): 5 mg/kg
- blood chemistry and histopathology ([4]; mice, 5 mg/kg intravenous): a transient nonspecific stress response with no damage to organ tissues
- well tolerated dose, subcutaneous ([4]; subcutaneous): 20 mg/kg
